# Test results published in PubChem BioAssay AID1996.
# Conditions: buffer; pH 7.4; 200.0 µM
row,Structure (SMILES),solubility kinetic [µg/mL]
1,COc1ccc(CCNCc2cccn2C)cc1.Cl,40.5
2,COc1ccc2oc(=Nc3cc(F)ccc3F)c(C(N)=O)cc2c1,< 0.4
3,Cn1c(Nc2ccc(Cl)cc2)cc(=O)n(C)c1=O,> 39.9
4,Brc1c(-c2ccccc2)nc2n1Cc1ccccc1-2,0.6
5,Br.Fc1cccc(CNCC2CCCO2)c1 (stereo not given),42.2
6,CCCCOc1ccc(C2=CSC3=NCCN23)cc1[N+](=O)[O-],> 47.9
7,O=C(Cc1ccccc1[N+](=O)[O-])NCCC1=CCCCC1,26.7
8,COc1ccc(-c2nc(N)ncc2-c2ccccc2)c(O)c1,0.9
9,CC1(C(=O)O)CCC(C(=O)N2CCCCC2)C1(C)C (stereo not given),> 40.1
10,COc1cc2nc(CN3CCN(S(=O)(=O)c4ccc(Br)cc4)CC3)[nH]c(=O)c2cc1OC,17.7
11,COc1ccc(Cc2nc3ccccc3[nH]2)cc1OC,> 40.2
12,O=C(O)c1ccc(NC(=S)NC(=O)c2cccnc2)cc1,> 45.2
13,COC(=O)c1ccc(NC(=O)C2CC3CCC2C3)cc1 (stereo not given),8.1
14,COc1ccc(-c2nc3c(s2)CN(S(C)(=O)=O)CC3)cc1OC,10.6
15,O=C(CSc1nc2ncc(Cl)cc2[nH]1)c1ccc2c(c1)OCO2,1.8
16,Cc1nn(CC(=O)NCc2ccco2)c(C)c1[N+](=O)[O-],> 41.7
17,Cc1cccc(Nc2nc(N)c([N+](=O)[O-])c(NCCO)n2)c1,19.8
18,COc1ccc(/C=N/Nc2nc(C)cc(=O)[nH]2)cc1OC,> 43.2
19,CC(=NCCN1CCCCC1)c1c(O)n(-c2ccccc2)c(=O)[nH]c1=O,> 53.5
20,COC(=O)c1ccccc1NC(=O)c1ccc(F)cc1,< 0.6
21,CCNC(=O)COC(=O)c1cc(C)nc2ccccc12,> 40.8
22,O=C(CSc1ccccc1Cl)N1CCOCC1,> 40.8
23,O=C(COC(=O)CNC(=O)c1ccccc1)NCc1ccc2c(c1)OCO2,> 55.6
24,COc1cccc2cc(-c3ccnc(N)n3)oc12,2.6

row,Structure (SMILES),solubility kinetic [µg/mL]
1,CCOC(=O)N1CCN(C(=O)/C=C/c2ccc(OC)cc2)CC1,36.1
2,O=c1[nH]c2ccccc2c(O)c1-[n+]1ccccc1.[Cl-],40.5
3,Cc1cccn2c(=O)c3cc(C(=O)NC4CCCC4)sc3nc12,4.9
4,Cc1cnc(C(=O)OCC(=O)c2ccc(-c3ccccc3)cc2)cn1,7.7
5,COc1ccc(CNC(=O)c2sc(=S)n(-c3ccccc3)c2N)cc1,0.7
6,Cc1ccc(CC2CC(=O)N(c3cc(Cl)ccn3)C2=O)cc1 (stereo not given),13.7
7,Cl.O=C(NC1CCN(Cc2ccccc2)CC1)c1ccccc1NS(=O)(=O)c1ccc(F)cc1,> 75.6
8,O=C(CCN1C(=O)C2CC=CCC2C1=O)NC1CCCCC1 (stereo not given),> 45.7
9,COc1ccccc1OCC(=O)Nc1nc2c(s1)CCCC2,8
10,COc1ccc(C(=O)CC(=O)C(=O)Nc2ccc(C)c(C)c2)cc1,12.4
11,C(=N\Nc1ccccn1)/c1cccnc1,> 29.7
12,O=C(COc1ccc(Cl)cc1)Nc1ccccc1Cl,< 0.6
13,O=C(CSc1ccncc1)Nc1ccc2ccccc2c1,2.3
14,O=C(Nc1cccc(F)c1)Nc1cccc(Cl)c1,2
15,COc1cc2c(cc1OC)C(c1ccc(O)cc1)NCC2 (stereo not given),> 42.8
16,O=C(COC(=O)c1ccc[nH]c1=O)NC1CCCCCCC1,41.5
17,Cc1cccc(C(=O)NCC(=O)OCC(=O)NC2CCCCC2)c1,> 49.9
18,Cl.O=C(CN1CCCCC1)NC1CCc2cc3c(cc21)CCC3 (stereo not given),45.6
19,O=C(CSc1ncccn1)N1CCCC1,> 33.5
20,COCCCNC(=O)/C(C#N)=C/c1ccc(F)cc1,38.4
21,Cc1cc(C)nc(SCC(=O)c2ccc(F)cc2F)n1,> 44.1
22,CC(C)CNC(=O)C(=O)NCCCN1CCOCC1,> 40.7
23,COc1ccc(/C=C/C(=O)NCc2ccc3c(c2)OCO3)cc1OC,2.8
24,CN(C(=O)COC(=O)/C=C/c1ccccc1[N+](=O)[O-])c1ccccc1,47.5

row,Structure (SMILES),solubility kinetic [µg/mL]
1,O=C1NC(=O)C(Sc2ccccc2[N+](=O)[O-])C(=O)N1,> 42.2
2,O=[N+]([O-])c1ccc(NCc2ccccc2N2CCC(CO)CC2)nc1,12.4
3,O=C(O)CC1(CC(=O)Nc2cc(F)ccc2Cl)CCCCC1,> 49.2
4,O=C(NC(=S)Nc1ccccc1Cl)c1cncc(Br)c1,1.2
5,O=C(O)/C(=N/NC(=O)c1ccc(Cl)cc1)c1ccccc1,> 45.4
6,O=C(NCc1ccccc1)c1ccccc1Br,36.4
7,CN(Cc1ccccc1)S(=O)(=O)c1cccc2nsnc12,3
8,Cc1cccnc1NC(=O)Cn1c(=O)oc2ccccc21,41.2
9,O=C(COC(=O)c1cccnc1Cl)NC1CCCCCC1,> 46.6
10,O=C(Nc1ccc(Cl)cn1)c1cccc(OCc2ccccc2)c1,0.7
11,CC(C)(C)Nc1nc(-c2ccccn2)nc2ccccc12,> 41.8
12,N/C(=N\c1nc2ccccc2o1)NC(=O)c1ccccc1Br,< 0.2
13,CS(=O)(=O)N(CC(=O)N1CCCC1)c1ccccc1Br,> 54.2
14,CCc1c(C)c(C#N)c2[nH]c3ccccc3n2c1=S,6.6
15,COC(=O)c1[nH]c2ccccc2c1Sc1ccccc1,0.9
16,Cc1cccc(C)c1OCC(=O)Nc1ccc2c(c1)OCCO2,23.5
17,O=C(COc1ccccc1[N+](=O)[O-])Nc1cc(Cl)ccc1C(=O)O,> 52.6
18,COc1ccc(S(=O)(=O)NCCc2c[nH]c3ccc(Cl)cc23)cc1,18.6
19,CCOc1ccc(CCNC(=O)COC(=O)c2ccc(C)s2)cc1OCC,23.7
20,Cc1ccc(CNC(=O)COC(=O)C2CCC2)cc1,> 39.2
21,COC(=O)c1ccc(COc2ncnc3ccccc23)o1,> 42.6
22,CC(CCc1ccccc1)NC(=O)CSc1cccc[n+]1[O-] (stereo not given),40.6
23,CC1Cc2ccccc2N1Cc1cccc([N+](=O)[O-])c1 (stereo not given),3.6
24,CCOc1ccccc1CNCc1ccc(F)cc1.Cl,43.8

row,Structure (SMILES),solubility kinetic [µg/mL]
1,N/C(CS(=O)(=O)c1ccccc1)=N\OC(=O)c1ccc(F)cc1,8.8
2,Cc1cccc(NS(=O)(=O)Cc2ccccc2)c1C,35.6
3,O=C(Cc1ccccc1F)Nc1cc(S(=O)(=O)N2CCOCC2)ccc1N1CCCC1,15.1
4,CS(=O)(=O)N1CCCC(C(=O)Nc2ccc(F)cc2)C1 (stereo not given),> 45.1
5,Cc1ccc(C(=O)NCC(=O)NC2CCC(C)CC2)s1 (stereo not given),7.6
6,Cc1cccc(NC(=O)CCOc2ccccc2)c1C,15.6
7,Cl.O=c1cc(CN2CCNCC2)nc2sccn12,44
8,CCN(CC)C(=O)COC(=O)C1=NN(c2cc(C)ccc2C)C(=O)CC1,> 53.9
9,CCNCCC(CCC(C)C)c1ccc2c(c1)OCO2 (stereo not given),33.7
10,COC(=O)CNC(=S)NC(=O)c1ccc(C(C)(C)C)cc1,25.4
11,Cc1ccc(C)c(NC(=S)N2CCN(c3ccccn3)CC2)c1,14.1
12,NC(=O)C1CCN(CC(O)CSc2ccccc2)CC1 (stereo not given),> 44.2
13,CCOC(=O)C1=C(c2ccc(O)cc2)NC(=O)NC1C (stereo not given),37
14,CC(C)c1ccc(OC(=O)c2ccc3c(=O)n4c(nc3c2)CCC4)cc1,8.3
15,O=C(NC1CCCCC1)C1CCCN1S(=O)(=O)c1ccc(F)cc1 (stereo not given),8
16,CSc1nc(C)c(C(=O)C[n+]2ccccc2C)cc1C#N.[Br-],> 56.7
17,COc1ccc(Cl)cc1C(=O)Nc1cccnc1,22.1
18,CN1CCN/C1=C(/C(Cl)=C(Cl)Cl)[N+](=O)[O-],> 40.9
19,Clc1ccccc1OCCCCN1CCNCC1.O=C(O)C(=O)O,> 53.8
20,COc1ccc(C(C)=O)cc1CN1C(=O)NC2(CCCC2)C1=O,44.9
21,CN1CCN(CCC(=O)Nc2cccc(Br)c2)CC1,42.6
22,CCOc1ccc(C(=O)CCC(=O)Nc2ccccc2C)cc1,4.6
23,Fc1ccc(C2c3cccn3CCN2C(=S)Nc2cccc(F)c2)cc1 (stereo not given),5.1
24,CC(C)(C)c1ccc(N=C2SCC(=O)N2Cc2cccs2)cc1,0.4

row,Structure (SMILES),solubility kinetic [µg/mL]
1,COc1ccc(C(=O)NCCCNC(=O)c2ccco2)cc1OC,> 49.9
2,O=C(Cn1cnc2ccccc21)OCC(=O)N1CCCCC1,> 45.2
3,Cc1ccc(C(=O)Nc2cccc3ccccc23)cc1,0.8
4,O=C(CC1(CC(=O)N2CCOCC2)CCCC1)Nc1ccc(F)cc1,> 52.3
5,COc1ccc(/C=C/C(=O)OCC(=O)NC(=O)NC(C)(C)C)cc1,< 0.4
6,Cc1ccc(Nc2cc(=O)[nH]c(=O)[nH]2)cc1C,18.2
7,Cc1ccccc1NC(=O)CC(=O)Nc1ccccc1C,> 42.4
8,O=NN1CCN(c2ccncc2S(=O)(=O)N2CCCCC2)CC1,> 50.9
9,CCSC(=O)NC1CCCCC1,14.4
10,COc1ccccc1CNC(=O)c1cccnc1,> 36.3
11,Cc1ccsc1CN(C)CC(=O)NCC(=O)Nc1ccc(F)c(F)c1F,10.8
12,COc1cc(CNC(=O)c2cc3ccccc3oc2=O)cc(OC)c1OC,4.6
13,COc1ccc(NC(=S)N2CCc3ccccc3C2)cc1OC,1.9
14,CC(=O)c1cccc(N2C(=O)CC(N3CCN(S(=O)(=O)c4ccccc4F)CC3)C2=O)c1 (stereo not given),> 68.9
15,COc1ccc(NC(=O)CNC(=O)c2c(C)nn(C)c2Cl)cc1,> 50.5
16,O=C(COC(=O)c1ccc(S(=O)(=O)N2CCOCC2)cc1)NCc1ccccc1,8.6
17,CCCOc1ccc(-c2csc3nc[nH]c(=O)c23)cc1,2.9
18,O=C(COc1cc(Cl)ccc1Cl)Nc1ccc2[nH]c(=O)[nH]c2c1,2.7
19,CC(C)(C)N=Cc1c(O)ccc2oc3c(c12)CCCC3,6.5
20,O=[N+]([O-])c1ccc(CN2CCN(c3ccc(F)cc3)CC2)o1,15
21,O=C1NC(c2ccccc2Br)=N/C1=C\c1ccco1,13.6
22,O=C(NC1=NCCS1)c1ccccc1OCc1ccc(F)cc1,< 0.4
23,CCOC(=O)c1c(C)[nH]c(C)c1C(=O)COC(=O)c1cccnc1Cl,> 54.7
24,O=C(COc1ncnc2ccccc12)Nc1cccc([N+](=O)[O-])c1,15.1
